≈ marks a conversion by molar mass, not a printed value.
How the values were obtained:
[1] = biological target: T1, purified recombinant Yck2 (Candida albicans, UniProt A0A1D8PKB4); assay: HotSpot kinase assay; type: biochemical, C. albicans
T1 construct: Yck2 residues 37-345 were PCR amplified from C. albicans genomic DNA; His6 (N); TEV protease site (N); made in house; host or cells: E. coli BL21(DE3)-Gold

CaCi2 = assay: Antifungal sensitivity testing (broth microdilution MIC); type: cell-based; conditions: CaCi2, 96-well broth microdilution, compounds in DMSO
Method: Minimum inhibitory concentrations (MICs) were determined in flat bottom, 96-well plate format using a modified broth microdilution protocol as previously described (Singh et al., PLoS Pathog. 5, e1000532 (2009); LaFayette et al., PLoS Pathog. 6, 79-80 (2010)). Compounds were formulated in dimethyl sulfoxide (DMSO, Sigma-Aldrich Co.). Each compound was tested in duplicate in at least two independent experiments.

[2] = Mammalian cell toxicity (Cell Titer-Glo); type: cell-based; conditions: human; HepG2 cells, 48 h incubation, Cell Titer-Glo luminescence
Method: HepG2 cells were seeded overnight at 500 cells/well in 384-well plate, then incubated with compounds (10-point concentration titration) for 48 h. Cell Titer-Glo® reagent ([…]) was added to each well and after 10-minute incubation at room temperature the luminescent signal was measured using an Envision plate reader (Perkin Elmer).

T1 sequence (A0A1D8PKB4 entry or part of it): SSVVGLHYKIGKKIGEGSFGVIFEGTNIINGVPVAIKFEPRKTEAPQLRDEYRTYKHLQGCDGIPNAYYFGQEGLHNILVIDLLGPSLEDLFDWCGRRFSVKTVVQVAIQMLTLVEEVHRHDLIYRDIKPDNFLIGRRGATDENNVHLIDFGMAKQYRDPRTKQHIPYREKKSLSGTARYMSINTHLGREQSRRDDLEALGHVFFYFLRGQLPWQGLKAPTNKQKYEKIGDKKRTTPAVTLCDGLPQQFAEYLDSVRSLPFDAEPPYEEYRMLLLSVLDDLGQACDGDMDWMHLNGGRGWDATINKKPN

SMILES | IC50 [1] | MIC50 (CaCi2) | IC50 at 48 h [2]
Cn1cc(-c2ccncc2COC(=O)C2CCN(CC(O)(Cn3cncn3)c3ccc(F)cc3F)CC2)c(-c2ccc(F)cc2)n1 (centres unmarked) [Compound I-239, (4-(3-(4-fluorophenyl)-1-methyl-1H-pyrazol-4-yl)pyridin-3-yl)methyl 1-(2-(2,4-difluorophenyl)-2-hydroxy-3-(1H-1,2,4-triazol-1-yl)propyl)piperidine-4-carboxylate] | 185 nM | 0.195 µM (≈ 0.123 µg/mL) | > 20 µM
C[C@@H](NCc1ccc2c(-c3ccncc3)c(-c3ccc(F)cc3)nn2c1)[C@](O)(Cn1cncn1)c1ccc(F)cc1F [Compound I-266, (2R,3R)-2-(2,4-difluorophenyl)-3-(((2-(4-fluorophenyl)-3-(pyridin-4-yl)pyrazolo[1,5-a]pyridin-6-yl)methyl)amino)-1-(1H-1,2,4-triazol-1-yl)butan-2-ol] |  | 0.195 µM (≈ 0.111 µg/mL) | 19.5 µM
OC(Cn1cncn1)(c1ccc(F)cc1F)C(F)(F)c1ccc(C#Cc2ccc(NCc3ccc4c(-c5ccncc5)c(-c5ccc(F)cc5)nn4c3)cc2)cn1 (centres unmarked) [Compound I-268] |  | 1.17 µM (≈ 0.899 µg/mL) | > 50 µM
O=C(NC1CCN(C[C@](O)(Cn2cncn2)c2ccc(F)cc2F)CC1)c1ccc2c(-c3ccncc3)c(-c3ccc(F)cc3)nn2c1 [Compound I-102, (S)-N-(1-(2-(2,4-difluorophenyl)-2-hydroxy-3-(1H-1,2,4-triazol-1-yl)propyl)piperidin-4-yl)-2-(4-fluorophenyl)-3-(pyridin-4-yl)pyrazolo[1,5-a]pyridine-6-carboxamide] | 46.6 nM | 3.12 µM (≈ 2.04 µg/mL) | 2.24 µM
O=C(CC(O)(Cn1cncn1)c1ccc(F)cc1F)NCc1ccc2c(-c3ccncc3)c(-c3ccc(F)cc3)nn2c1 (centres unmarked) [Compound I-255, 3-(2,4-difluorophenyl)-N-((2-(4-fluorophenyl)-3-(pyridin-4-yl)pyrazolo[1,5-a]pyridin-6-yl)methyl)-3-hydroxy-4-(1H-1,2,4-triazol-1-yl)butanamide] |  | 1.56 µM (≈ 0.91 µg/mL) | 22.5 µM
OC(CNCCOc1cccc2c(-c3ccncc3)c(-c3ccc(F)cc3)nn12)(Cn1cncn1)c1ccc(F)cc1F (centres unmarked) [Compound I-153, 2-(2,4-difluorophenyl)-1-((2-((2-(4-fluorophenyl)-3-(pyridin-4-yl)pyrazolo[1,5-a]pyridin-7-yl)oxy)ethyl)amino)-3-(1H-1,2,4-triazol-1-yl)propan-2-ol] | 48.7 nM | 1.56 µM (≈ 0.914 µg/mL) | > 20 µM
O=C(NC1CCN(CC(O)(Cn2cncn2)c2ccc(F)cc2F)CC1)c1cccc2c(-c3ccncc3)c(-c3ccc(F)cc3)nn12 (centres unmarked) [Compound I-155, N-(1-(2-(2,4-difluorophenyl)-2-hydroxy-3-(1H-1,2,4-triazol-1-yl)propyl)piperidin-4-yl)-2-(4-fluorophenyl)-3-(pyridin-4-yl)pyrazolo[1,5-a]pyridine-7-carboxamide] |  | 0.781 µM (≈ 0.51 µg/mL) | 10.1 µM
O=C(NCC(O)(Cn1cncn1)c1ccc(F)cc1F)c1ccc2c(-c3ccncc3)c(-c3ccc(F)cc3)nn2c1 (centres unmarked) [Compound I-115, N-(2-(2,4-difluorophenyl)-2-hydroxy-3-(1H-1,2,4-triazol-1-yl)propyl)-2-(4-fluorophenyl)-3-(pyridin-4-yl)pyrazolo[1,5-a]pyridine-6-carboxamide] | 3.67 nM | 1.27 µM (≈ 0.723 µg/mL) | > 20 µM
Cn1cc(-c2ccnc3c2C(=O)N(C2CCN(CC(O)(Cn4cncn4)c4ccc(F)cc4F)CC2)C3)c(-c2ccc(F)cc2)n1 (centres unmarked) [Compound I-242, 6-(1-(2-(2,4-difluorophenyl)-2-hydroxy-3-(1H-1,2,4-triazol-1-yl)propyl)piperidin-4-yl)-4-(3-(4-fluorophenyl)-1-methyl-1H-pyrazol-4-yl)-6,7-dihydro-5H-pyrrolo[3,4-b]pyridin-5-one] | 15.3 nM |  | > 20 µM
O=C(NC1CCN(C[C@@](O)(Cn2cncn2)c2ccc(F)cc2F)CC1)c1ccc2c(-c3ccncc3)c(-c3ccc(F)cc3)nn2c1 [Compound I-103, (R)-N-(1-(2-(2,4-difluorophenyl)-2-hydroxy-3-(1H-1,2,4-triazol-1-yl)propyl)piperidin-4-yl)-2-(4-fluorophenyl)-3-(pyridin-4-yl)pyrazolo[1,5-a]pyridine-6-carboxamide] | 49.5 nM | 0.0488 µM (≈ 0.0319 µg/mL) | 6.38 µM
OC(Cn1cncn1)(c1ccc(F)cc1F)C(F)(F)c1ccc(C#Cc2ccc(OCCNCc3ccc4c(-c5ccncc5)c(-c5ccc(F)cc5)nn4c3)cc2)cn1 (centres unmarked) [Compound I-270] |  | 0.586 µM (≈ 0.476 µg/mL) | 1.54 µM
Fc1ccc(-c2nn3cc(CNC[C@H]4CO[C@@](Cn5cncn5)(c5ccc(F)cc5F)C4)ccc3c2-c2ccncc2)cc1 (stereo in doubt) [Compound I-257, 1-(cis-5-((1H-1,2,4-triazol-1-yl)methyl)-5-(2,4-difluorophenyl)tetrahydrofuran-3-yl)-N-((2-(4-fluorophenyl)-3-(pyridin-4-yl)pyrazolo[1,5-a]pyridin-6-yl)methyl)methanamine] |  | 0.295 µM (≈ 0.176 µg/mL) | 5.57 µM
Nc1nccc(-c2c(-c3ccc(F)cc3)ncn2C2CCN(CCCn3c4c(c5cccc(Cl)c53)CCNC4)CC2)n1 [Compound I-231, 4-(1-(1-(3-(8-chloro-1,2,3,4-tetrahydro-9H-pyrido[3,4-b]indol-9-yl)propyl)piperidin-4-yl)-4-(4-fluorophenyl)-1H-imidazol-5-yl)pyrimidin-2-amine] | 4.13 nM | > 25 µM | 1.84 µM

From patent US20260199483A1 (Bright Angel Therapeutics Inc., priority 2022, published 2026)
